Common to all, as to assay: biochemical
The target of one experiment is T1, recombinant human MMP-1 (Homo sapiens, UniProt P03956).
T1 construct: made in house; host or cells: transfected HT-1080 cells
T1 sequence (P03956 100-469): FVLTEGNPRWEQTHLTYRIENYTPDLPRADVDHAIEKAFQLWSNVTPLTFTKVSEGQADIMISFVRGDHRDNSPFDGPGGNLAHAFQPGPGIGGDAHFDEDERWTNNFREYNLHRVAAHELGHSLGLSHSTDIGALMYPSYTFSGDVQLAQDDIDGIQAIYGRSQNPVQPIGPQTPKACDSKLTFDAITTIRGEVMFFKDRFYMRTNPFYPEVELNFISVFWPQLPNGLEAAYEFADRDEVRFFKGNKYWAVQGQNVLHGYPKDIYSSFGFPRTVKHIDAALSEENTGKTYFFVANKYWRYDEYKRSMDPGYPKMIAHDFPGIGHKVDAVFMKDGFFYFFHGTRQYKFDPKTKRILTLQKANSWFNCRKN

Another experiment has as its target T2, recombinant human MMP-2 (Homo sapiens, UniProt P08253).
T2 sequence (P08253 110-660): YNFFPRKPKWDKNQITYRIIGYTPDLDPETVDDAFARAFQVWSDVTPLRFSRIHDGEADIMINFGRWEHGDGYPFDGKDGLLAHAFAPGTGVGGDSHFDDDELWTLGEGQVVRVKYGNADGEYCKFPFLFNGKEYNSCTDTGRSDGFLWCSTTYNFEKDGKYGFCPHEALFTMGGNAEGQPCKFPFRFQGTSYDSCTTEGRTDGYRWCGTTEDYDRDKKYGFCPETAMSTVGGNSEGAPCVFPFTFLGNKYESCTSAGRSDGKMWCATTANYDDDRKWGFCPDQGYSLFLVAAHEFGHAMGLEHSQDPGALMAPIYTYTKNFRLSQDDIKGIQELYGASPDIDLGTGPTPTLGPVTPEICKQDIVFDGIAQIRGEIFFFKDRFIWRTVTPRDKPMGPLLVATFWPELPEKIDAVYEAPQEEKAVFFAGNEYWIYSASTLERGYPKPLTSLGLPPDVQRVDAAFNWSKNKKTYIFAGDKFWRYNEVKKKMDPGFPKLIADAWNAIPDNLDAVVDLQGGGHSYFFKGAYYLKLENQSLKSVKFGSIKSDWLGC

The target in a further experiment is recombinant human MMP-13 (Homo sapiens, UniProt P45452).

Molecules are shown by their SMILES. Where a name gives a salt, the structure may show the parent alone. Read-outs that look alike come from different tables or passages of the source.

With `N[C@H]1CCN(C(=O)C2CCCN(c3ccc(S(=O)(=O)C4(C(=O)NO)CCOCC4)cc3)C2)C1` (stereo partly drawn) [Example 168], the values for the IC50 on recombinant human MMP-1 (Inhibition Table B), at recombinant human MMP-2 (Inhibition Table B) and on recombinant human MMP-13 (Inhibition Table B) were > 10000 nM, > 1000 nM and > 100 nM, respectively.
Regarding `O=C(NO)C1(S(=O)(=O)c2ccc(SC3CCCCC3)cc2)CCN(C2CC2)CC1` [Example 21], the IC50 at recombinant human MMP-1 was > 10000 nM; at recombinant human MMP-2 (room temperature, pH 7.5, 1 percent DMSO, 4 μM MCA peptide substrate, no asterisk), 1.3 nM; on recombinant human MMP-13 (room temperature, pH 7.5, 1 percent DMSO, 4 μM MCA peptide substrate) it was 0.6 nM.
On to `O=C(C1CCCN(c2ccc(S(=O)(=O)C3(C(=O)NO)CCOCC3)cc2)C1)N1CCC(N2CCCC2)CC1` (stereo not drawn) [Example 171], for which the values for the IC50 at recombinant human MMP-1 (Inhibition Table B), on recombinant human MMP-2 (Inhibition Table B) and on recombinant human MMP-13 (Inhibition Table B) were > 10000 nM, > 1000 nM and > 100 nM, respectively.
For `O=C(NO)C1(S(=O)(=O)c2ccc(-c3ccc(Cl)cc3)cc2)CCOCC1` [Example 216], in that order: 1000 nM, < 1 nM and < 1 nM.
As to `C#CCN1CCC(C(=O)O)(S(=O)(=O)c2ccc(Sc3ccc(Cl)cc3)cc2)CC1` [Example 44a, 4-[[4-(4-chlorophenyl)thio]phenyl)sulfonyl]-1-(propynyl)-4-piperidinecarboxylic acid, monohydrochloride], the IC50 is > 10000 nM on recombinant human MMP-1 (Inhibition Table B), < 0.1 nM at recombinant human MMP-2 (Inhibition Table B) and 0.2 nM on recombinant human MMP-13 (Inhibition Table B).
Take `CN(C)C(=O)C1CCCN(c2ccc(S(=O)(=O)C3(C(=O)NO)CCOCC3)cc2)C1` (stereo not drawn) [Example 155]: the figures for the IC50 at recombinant human MMP-1 (Inhibition Table B), on recombinant human MMP-2 (Inhibition Table B) and at recombinant human MMP-13 (Inhibition Table B) were > 10000 nM, > 1000 nM and > 100 nM, respectively.
For `O=C(NCc1ccccn1)C1CCN(c2ccc(S(=O)(=O)C3(C(=O)NO)CCOCC3)cc2)CC1` [Example 196], in that order: > 10000 nM, 240 nM and 25 nM.
On the same counts, the results for `Cc1cc(-c2ccc(S(=O)(=O)C3(C(=O)NO)CCOCC3)cc2)ccc1F` [Example 222] are 100 nM, < 1 nM and < 1 nM.
Regarding `O=C(C1CCN(c2ccc(S(=O)(=O)C3(C(=O)NO)CCOCC3)cc2)CC1)N1CCCCCC1` [Example 165], the half-maximal inhibitory concentration (IC50) at recombinant human MMP-1 (Inhibition Table B) was > 10000 nM; on recombinant human MMP-2 (Inhibition Table B), 330 nM; at recombinant human MMP-13 (Inhibition Table B), 13.6 nM.
On the same counts, the results for `O=C(Oc1ccc([N+](=O)[O-])cc1)N1CCN(c2ccc(S(=O)(=O)C3(C(=O)NO)CCOCC3)cc2)CC1` [Example 205] are 7300 nM, 12.7 nM and 2 nM.
Consider `O=C(C1CCN(c2ccc(S(=O)(=O)C3(C(=O)NO)CCOCC3)cc2)CC1)N1CCC(Cc2ccccc2)CC1` [Example 191], for which the IC50 is > 10000 nM at recombinant human MMP-1 (Inhibition Table B), 350 nM at recombinant human MMP-2 (Inhibition Table B) and 4 nM on recombinant human MMP-13 (Inhibition Table B).
For `O=C(NN1CCOCC1)C1CCN(c2ccc(S(=O)(=O)C3(C(=O)NO)CCOCC3)cc2)CC1` [Example 185], in that order: > 10000 nM, 210 nM and 17.5 nM.
On the same counts, the results for `CCOC(=O)C1CCN(C(=O)N2CCN(c3ccc(S(=O)(=O)C4(C(=O)NO)CCOCC4)cc3)CC2)CC1` [Example 211] are > 10000 nM, 33 nM and 24 nM.
For `O=C(C1CCN(c2ccc(S(=O)(=O)C3(C(=O)NO)CCOCC3)cc2)CC1)N1CCC(O)(Cc2ccccc2)CC1` [Example 193], in that order: > 10000 nM, 390 nM and 6 nM.
On to `CN1CCN(C(=O)C2CCN(c3ccc(S(=O)(=O)C4(C(=O)NO)CCOCC4)cc3)CC2)CC1` [Example 150], for which the IC50 is > 10000 nM on recombinant human MMP-1 (Inhibition Table B), 1300 nM at recombinant human MMP-2 (Inhibition Table B) and 14.5 nM on recombinant human MMP-13 (Inhibition Table B).
In the case of `O=C(C1CCCN(c2ccc(S(=O)(=O)C3(C(=O)NO)CCOCC3)cc2)C1)N1CCC(O)C1` (stereo not drawn) [Example 166], the 50% inhibitory concentration (IC50) was > 10000 nM on recombinant human MMP-1 (Inhibition Table B), > 1000 nM on recombinant human MMP-2 (Inhibition Table B) and > 100 nM at recombinant human MMP-13 (Inhibition Table B).
As for `O=C(C1CCN(c2ccc(S(=O)(=O)C3(C(=O)NO)CCOCC3)cc2)CC1)N1CCC(O)C1` (stereo not drawn) [Example 173], the IC50 on recombinant human MMP-1 (Inhibition Table B) is > 10000 nM; at recombinant human MMP-2 (Inhibition Table B), > 1000 nM; at recombinant human MMP-13 (Inhibition Table B), > 100 nM.
As for `O=C(NCc1cccs1)C1CCN(c2ccc(S(=O)(=O)C3(C(=O)NO)CCOCC3)cc2)CC1` [Example 189], the IC50 at recombinant human MMP-1 (Inhibition Table B) is 3700 nM; at recombinant human MMP-2 (Inhibition Table B), 94 nM; on recombinant human MMP-13 (Inhibition Table B) it was 8 nM.
For the compound `CN1CCN(C(=O)N2CCN(c3ccc(S(=O)(=O)C4(C(=O)NO)CCOCC4)cc3)CC2)CC1` [Example 210], the IC50 on recombinant human MMP-1 (Inhibition Table B) was > 10000 nM; at recombinant human MMP-2 (Inhibition Table B) it was 27 nM; at recombinant human MMP-13 (Inhibition Table B), 20 nM.
Regarding `O=C(NO)C1(S(=O)(=O)c2ccc(-c3cccc([N+](=O)[O-])c3)cc2)CCOCC1` [Example 214], the values for the IC50 on recombinant human MMP-1 (Inhibition Table B), at recombinant human MMP-2 (Inhibition Table B) and at recombinant human MMP-13 (Inhibition Table B) were 1100 nM, < 1 nM and < 1 nM, respectively.
As for `CCOC(=O)C1CCCCN1C(=O)C1CCN(c2ccc(S(=O)(=O)C3(C(=O)NO)CCOCC3)cc2)CC1` (stereo not drawn) [Example 154], the IC50 at recombinant human MMP-1 (Inhibition Table B) is > 10000 nM; at recombinant human MMP-2 (Inhibition Table B) it was 1600 nM; on recombinant human MMP-13 (Inhibition Table B) it was 27 nM.
On the same counts, the results for `O=C(C1CCN(c2ccc(S(=O)(=O)C3(C(=O)NO)CCOCC3)cc2)CC1)N1CCC(c2ccccc2)CC1` [Example 192] are > 10000 nM, 330 nM and 10 nM.
For `NCCCNC(=O)C1CCCN(c2ccc(S(=O)(=O)C3(C(=O)NO)CCOCC3)cc2)C1` (stereo not drawn) [Example 142], in that order: > 10000 nM, 600 nM and 70 nM.
On the same counts, the results for `O=C(NC1CCc2ccccc21)C1CCN(c2ccc(S(=O)(=O)C3(C(=O)NO)CCOCC3)cc2)CC1` (stereo not drawn) [Example 188] are > 10000 nM, 350 nM and 9.4 nM.
Regarding `O=C(C1CCN(c2ccc(S(=O)(=O)C3(C(=O)NO)CCOCC3)cc2)CC1)N1CCNCC1` [Example 151], the IC50 on recombinant human MMP-1 (Inhibition Table B) was > 10000 nM; on recombinant human MMP-2 (Inhibition Table B), 1500 nM; at recombinant human MMP-13 (Inhibition Table B), 35 nM.
For `C=CCN(CC=C)C(=O)C1CCN(c2ccc(S(=O)(=O)C3(C(=O)NO)CCOCC3)cc2)CC1` [Example 182], in that order: > 10000 nM, 240 nM and 4 nM.
Consider `O=C(C1CCN(c2ccc(S(=O)(=O)C3(C(=O)NO)CCOCC3)cc2)CC1)N1CCC(N2CCCC2)CC1` [Example 178], for which the IC50 on recombinant human MMP-1 (Inhibition Table B) is > 10000 nM; at recombinant human MMP-2 (Inhibition Table B) it was 540 nM; at recombinant human MMP-13 (Inhibition Table B) it was > 100 nM.
On the same counts, the results for `CCNC(=O)C1CCN(c2ccc(S(=O)(=O)C3(C(=O)NO)CCOCC3)cc2)CC1` [Example 134] are 9000 nM, 29 nM and 4 nM.
For `CCOC(=O)C1CCN(C(=O)C2CCCN(c3ccc(S(=O)(=O)C4(C(=O)NO)CCOCC4)cc3)C2)CC1` (stereo not drawn) [Example 159], in that order: > 10000 nM, 2500 nM and 15.6 nM.
On the same counts, the results for `CCOC(=O)C1CCCCN1C(=O)C1CCCN(c2ccc(S(=O)(=O)C3(C(=O)NO)CCOCC3)cc2)C1` (stereo not drawn) [Example 161] are > 10000 nM, > 1000 nM and > 100 nM.
Turning to `O=C(O)C1CCN(c2ccc(S(=O)(=O)C3(C(=O)NO)CCOCC3)cc2)CC1` [Example 129], the 50% inhibitory concentration (IC50) at recombinant human MMP-1 (Inhibition Table B) was > 10000 nM; on recombinant human MMP-2 (Inhibition Table B) it was > 100 nM; at recombinant human MMP-13 (Inhibition Table B) it was 1000 nM.
For `CN1CCN(C(=O)C2CCCN(c3ccc(S(=O)(=O)C4(C(=O)NO)CCOCC4)cc3)C2)CC1` (stereo not drawn) [Example 157], in that order: > 10000 nM, 6000 nM and 90 nM.
On the same counts, the results for `CC1(C)C[C@@H]2C[C@@](C)(CN2C(=O)C2CCN(c3ccc(S(=O)(=O)C4(C(=O)NO)CCOCC4)cc3)CC2)C1` [Example 164] are > 10000 nM, 1750 nM and 20 nM.
For `CN(C)C(=O)N1CCN(c2ccc(S(=O)(=O)C3(C(=O)NO)CCOCC3)cc2)CC1` [Example 208], in that order: > 10000 nM, 27 nM and 27 nM.
Regarding `O=C(NCCO)C1CCCN(c2ccc(S(=O)(=O)C3(C(=O)NO)CCOCC3)cc2)C1` (stereo not drawn) [Example 141], the IC50 was > 10000 nM on recombinant human MMP-1 (Inhibition Table B), > 100 nM at recombinant human MMP-2 (Inhibition Table B) and > 100 nM on recombinant human MMP-13 (Inhibition Table B).
As for `O=C(C1CCN(c2ccc(S(=O)(=O)C3(C(=O)NO)CCOCC3)cc2)CC1)N1CCOCC1` [Example 131], the 50% inhibitory concentration (IC50) at recombinant human MMP-1 (Inhibition Table B) was > 10000 nM; on recombinant human MMP-2 (Inhibition Table B), 650 nM; at recombinant human MMP-13 (Inhibition Table B) it was 10 nM.

These data come from patent publication US20060084688A1, “Aromatic sulfone hydroxamic acid metalloprotease inhibitor” (priority 1997, published 2006).
